The experiment addresses T1, human GluN1/GluN2B NMDA receptors (Homo sapiens, UniProt Q13224).
T1 construct: expressed in transfected cells
The experiment is described as follows: Cell-based calcium flux (FLIPR) assay on cloned human NR1/NR2B ion channels expressed in mammalian cells (standard and HTS buffer variants).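 Note: stable Tet-On inducible cell line, Ca2+ influx triggered by glutamate at about EC40 plus 10 µM glycine, fluorescent dye read-out over 5 min, normalized to control wells.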 A general note: Calcium assays in cells follow changes in intracellular calcium, usually with a dye or a luminescent sensor.

Where [1] appears, read: standard assay buffer (0.5 mM MgCl2 dye loading; 137 mM NaCl, 4 mM KCl assay buffer), human GluN1/GluN2B cells, read-out: NR2B IC50 (μM) standard assay.
Setting [2] is: HTS assay buffer (1.5 mM MgCl2 in dye loading buffer; 150 mM NaCl, 3 mM KCl in assay buffer), human GluN1/GluN2B, read-out: NR2B IC50 (μM) HTS assay.
Setting [3] is: standard assay buffer (0.5 mM MgCl2 in dye loading buffer; 137 mM NaCl, 4 mM KCl in assay buffer), human GluN1/GluN2B, read-out: NR2B IC50 (μM) standard assay.

Structures are written as SMILES. Where two headings read alike, the source gives them in different places.

T1 sequence (Q13224 27-1484, other chains not shown): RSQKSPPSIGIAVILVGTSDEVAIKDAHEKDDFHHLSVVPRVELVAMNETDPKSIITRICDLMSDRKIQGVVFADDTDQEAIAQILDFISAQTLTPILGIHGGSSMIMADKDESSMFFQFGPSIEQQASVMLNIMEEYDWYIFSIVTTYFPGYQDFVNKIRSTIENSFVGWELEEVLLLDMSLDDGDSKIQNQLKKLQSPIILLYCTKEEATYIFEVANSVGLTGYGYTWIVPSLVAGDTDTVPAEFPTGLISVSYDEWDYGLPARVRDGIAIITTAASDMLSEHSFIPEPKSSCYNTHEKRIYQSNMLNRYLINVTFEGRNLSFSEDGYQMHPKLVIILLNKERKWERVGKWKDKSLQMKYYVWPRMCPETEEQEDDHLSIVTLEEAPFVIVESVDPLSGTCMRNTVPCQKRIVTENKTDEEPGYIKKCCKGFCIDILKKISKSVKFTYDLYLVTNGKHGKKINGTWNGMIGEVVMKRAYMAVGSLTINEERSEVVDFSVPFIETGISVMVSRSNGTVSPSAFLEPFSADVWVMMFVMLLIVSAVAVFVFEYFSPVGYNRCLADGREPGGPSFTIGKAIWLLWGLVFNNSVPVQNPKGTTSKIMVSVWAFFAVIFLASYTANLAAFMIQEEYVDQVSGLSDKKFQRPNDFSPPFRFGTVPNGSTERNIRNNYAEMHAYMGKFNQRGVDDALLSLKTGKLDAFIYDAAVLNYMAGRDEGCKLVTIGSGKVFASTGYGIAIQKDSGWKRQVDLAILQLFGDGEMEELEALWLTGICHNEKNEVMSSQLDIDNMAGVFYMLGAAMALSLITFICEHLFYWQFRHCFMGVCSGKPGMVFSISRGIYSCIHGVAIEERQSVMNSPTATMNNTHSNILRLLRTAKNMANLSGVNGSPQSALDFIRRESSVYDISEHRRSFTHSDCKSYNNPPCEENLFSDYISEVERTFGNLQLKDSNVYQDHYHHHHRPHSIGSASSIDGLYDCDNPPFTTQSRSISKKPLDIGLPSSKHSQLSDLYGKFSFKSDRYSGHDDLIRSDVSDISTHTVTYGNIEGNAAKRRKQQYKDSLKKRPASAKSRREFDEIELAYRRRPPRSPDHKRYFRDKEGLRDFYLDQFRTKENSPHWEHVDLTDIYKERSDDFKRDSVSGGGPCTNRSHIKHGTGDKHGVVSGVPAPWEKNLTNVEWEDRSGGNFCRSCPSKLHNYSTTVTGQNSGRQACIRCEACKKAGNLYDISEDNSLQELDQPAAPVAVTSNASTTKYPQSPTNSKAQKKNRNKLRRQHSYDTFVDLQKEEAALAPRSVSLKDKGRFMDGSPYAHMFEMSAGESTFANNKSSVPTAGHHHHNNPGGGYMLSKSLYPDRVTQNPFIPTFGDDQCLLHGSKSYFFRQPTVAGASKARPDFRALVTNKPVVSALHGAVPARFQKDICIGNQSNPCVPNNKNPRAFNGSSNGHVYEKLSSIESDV

Consider `CCc1ccc(-c2cnc3c(c2)n(CC(=O)N(C)C)c(=O)n3C)s1` [Example 79, 2-[6-(5-Ethyl-2-thienyl)-3-methyl-2-oxo-imidazo[4,5-b]pyridin-1-yl]-N,N-dimethyl-acetamide], for which the concentration for half-maximal inhibition (IC50) under setting [1] stood at 0.031 µM.

In the case of `O=C(Cn1c(=O)[nH]c2ncc(-c3cccc(C(F)(F)F)c3)cc21)NC1CCCC1` [Example 205, N-Cyclopentyl-2-[2-oxo-6-[3-(trifluoromethyl)phenyl]-3H-imidazo[4,5-b]pyridin-1-yl]acetamide], the IC50 under setting [1] was 0.523 µM.

Turning to `CCOc1ccc(F)cc1-c1cnc2[nH]c(=O)n(CC(=O)c3cccs3)c2c1` [Example 460, 6-(2-Ethoxy-5-fluoro-phenyl)-1-[2-oxo-2-(2-thienyl)ethyl]-3H-imidazo[4,5-b]pyridin-2-one], the IC50 under setting [2] was 1.77 µM.

For the molecule `Cc1cc(F)ccc1-c1cnc2[nH]c(=O)n(Cc3ccc(F)cc3)c2c1` [Example 492, 6-(4-Fluoro-2-methyl-phenyl)-1-[(4-fluorophenyl)methyl]-3H-imidazo[4,5-b]pyridin-2-one], the IC50 under setting [2] was found to be 6.12 µM.

As for `COc1cccc(-c2cnc3[nH]c(=O)n(CC4CCCO4)c3c2)c1` (stereo not drawn) [Example 475, 6-(3-Methoxyphenyl)-1-(tetrahydrofuran-2-ylmethyl)-3H-imidazo[4,5-b]pyridin-2-one], the IC50 under setting [2] worked out at 0.157 µM.

With `Cc1nnc(Cn2c(=O)n(C)c3ncc(-c4ccc(C(F)(F)F)s4)cc32)o1` [Example 567, 3-Methyl-1-[(5-methyl-1,3,4-oxadiazol-2-yl)methyl]-6-[5-(trifluoromethyl)-2-thienyl]imidazo[4,5-b]pyridin-2-one], the IC50 under setting [3] came out at 0.146 µM.

Turning to `COc1ccc(-c2cnc3[nH]c(=O)n(Cc4cccc(C#N)c4)c3c2)cc1` [Example 477, 3-[[6-(4-Methoxyphenyl)-2-oxo-3H-imidazo[4,5-b]pyridin-1-yl]methyl]benzonitrile], the IC50 under setting [2] is 3.16 µM.

For the molecule `Cc1cc(F)ccc1-c1cnc2[nH]c(=O)n(Cc3ccccc3C#N)c2c1` [Example 483, 2-[[6-(4-Fluoro-2-methyl-phenyl)-2-oxo-3H-imidazo[4,5-b]pyridin-1-yl]methyl]benzonitrile], under setting [2], the IC50 was 1.8 µM.

`CN(C)C(=O)Cn1c(=O)n(CF)c2ncc(-c3ccc(C(F)(F)F)s3)cc21` [Example 596, 2-[3-(Fluoromethyl)-2-oxo-6-[5-(trifluoromethyl)-2-thienyl]imidazo[4,5-b]pyridin-1-yl]-N,N-dimethyl-acetamide]: under setting [3], the IC50 came out at 0.066 µM.

With `CCC(=O)Cn1c(=O)[nH]c2ncc(-c3ccc(F)c(F)c3)cc21` [Example 330, 6-(3,4-Difluorophenyl)-1-(2-oxobutyl)-3H-imidazo[4,5-b]pyridin-2-one], the IC50 under setting [3] turned out to be 0.004 µM.

Take `Cn1c(=O)n(CC(=O)O)c2cc(-c3cccc(C(F)(F)F)c3)cnc21` [Example 137, 2-[3-Methyl-2-oxo-6-[3-(trifluoromethyl)phenyl]imidazo[4,5-b]pyridin-1-yl]Acetic Acid]: the IC50 under setting [1] is > 10 µM.

For the molecule `Cc1c(F)ccc(-c2cnc3c(c2)n(Cc2cccnc2)c(=O)n3C)c1F` [Example 339, 6-(2,4-Difluoro-3-methyl-phenyl)-3-methyl-1-(3-pyridylmethyl)imidazo[4,5-b]pyridin-2-one], the IC50 under setting [3] stood at 0.034 µM.

As for `CN(C)C(=O)Cn1c(=O)n(C)c2ncc(-c3ccc(C4CC4)s3)cc21` [Example 110, 2-[6-(5-Cyclopropyl-2-thienyl)-3-methyl-2-oxo-imidazo[4,5-b]pyridin-1-yl]-N,N-dimethyl-acetamide], the IC50 under setting [1] was 0.04 µM.

Take `Cc1nccc(Cn2c(=O)n(C)c3ncc(-c4cccc(C(F)(F)F)c4)cc32)n1` [Example 248, 3-Methyl-1-[(2-methylpyrimidin-4-yl)methyl]-6-[3-(trifluoromethyl)phenyl]imidazo[4,5-b]pyridin-2-one]: the IC50 under setting [1] worked out at 2.05 µM.

Turning to `Cc1cc(-c2cnc3c(c2)n(Cc2ncccn2)c(=O)n3C)ccc1F` [Example 49, 6-(4-Fluoro-3-methyl-phenyl)-3-methyl-1-(pyrimidin-2-ylmethyl)imidazo[4,5-b]pyridin-2-one], the IC50 under setting [1] came out at 0.486 µM.

As for `CN(C)C(=O)Cn1c(=O)n(C)c2ncc(-c3csc(C(F)F)c3)cc21` [Example 97, 2-[6-[5-(Difluoromethyl)-3-thienyl]-3-methyl-2-oxo-imidazo[4,5-b]pyridin-1-yl]-N,N-dimethyl-acetamide], the IC50 under setting [1] stood at 0.015 µM.

As for `Cn1c(=O)n(Cc2ccccn2)c2cc(-c3ccc(F)c(F)c3)cnc21` [Example 62, 6-(3,4-difluorophenyl)-3-methyl-1-(2-pyridylmethyl)imidazo[4,5-b]pyridin-2-one], the IC50 under setting [1] worked out at 2 µM.

In the case of `Cc1c(F)ccc(-c2cnc3c(c2)n(CC(=O)N2CC(F)C2)c(=O)n3C)c1F` [Example 400, 6-(2,4-Difluoro-3-methyl-phenyl)-1-[2-(3-fluoroazetidin-1-yl)-2-oxo-ethyl]-3-methyl-imidazo[4,5-b]pyridin-2-one], the IC50 under setting [3] turned out to be 0.017 µM.

In the case of `Cc1cc(-c2cnc3c(c2)n(CC(=O)N(C)C)c(=O)n3C)ccc1F` [Example 420, 2-[6-(4-Fuoro-3-methyl-phenyl)-3-methyl-2-oxo-imidazo[4,5-b]pyridin-1-yl]-N,N-dimethyl-acetamide], the IC50 under setting [3] is 0.017 µM.

On to `O=c1[nH]c2ncc(-c3cccc(C(F)(F)F)c3)cc2n1Cc1ccccn1` [Example 228, 1-(2-Pyridylmethyl)-6-[3-(trifluoromethyl)phenyl]-3H-imidazo[4,5-b]pyridin-2-one], for which, under setting [1], the IC50 is 0.083 µM.

As for `Cn1c(=O)n(Cc2cnccn2)c2cc(-c3cccc(C(F)(F)F)c3)cnc21` [Example 249, 3-Methyl-1-(pyrazin-2-ylmethyl)-6-[3-(trifluoromethyl)phenyl]imidazo[4,5-b]pyridin-2-one], under setting [1], the IC50 turned out to be 0.253 µM.

On to `Cc1ccccc1-c1cnc2[nH]c(=O)n(CCN3CC(F)C3)c2c1` [Example 186, 1-[2-(3-Fluoroazetidin-1-yl)ethyl]-6-(o-tolyl)-3H-imidazo[4,5-b]pyridin-2-one], for which, under setting [1], the IC50 came out at 1.34 µM.

Turning to `Cc1cc(Cn2c(=O)[nH]c3ncc(-c4cccc(C(F)(F)F)c4)cc32)no1` [Example 19, 1-[(5-Methylisoxazol-3-yl)methyl]-6-[3-(trifluoromethyl)phenyl]-3H-imidazo[4,5-b]pyridin-2-one], under setting [1], the IC50 is 0.124 µM.

Take `O=c1[nH]c2ncc(-c3cccc(C(F)(F)F)c3)cc2n1CCN1CC(F)(F)C1` [Example 167, 1-[2-(3,3-Difluoroazetidin-1-yl)ethyl]-6-[3-(trifluoromethyl)phenyl]-3H-imidazo[4,5-b]pyridin-2-one]: the IC50 under setting [1] is 0.158 µM.

For the molecule `COCCNC(=O)Cn1c(=O)[nH]c2ncc(-c3ccc(F)cc3OC)cc21` [Example 446, 2-[6-(4-Fluoro-2-methoxy-phenyl)-2-oxo-3H-imidazo[4,5-b]pyridin-1-yl]-N-(2-methoxyethyl)acetamide], the IC50 under setting [3] turned out to be 0.204 µM.

Take `COc1cccc(F)c1-c1cnc2[nH]c(=O)n(CC(=O)NC3CC3)c2c1` [Example 455, N-Cyclopropyl-2-[6-(2-fluoro-6-methoxy-phenyl)-2-oxo-3H-imidazo[4,5-b]pyridin-1-yl]acetamide]: the IC50 under setting [3] was determined as 0.416 µM.

On to `COCCNC(=O)Cn1c(=O)[nH]c2ncc(-c3ccc(F)c(Cl)c3)cc21` [Example 612, 2-[6-(3-Chloro-4-fluoro-phenyl)-2-oxo-3H-imidazo[4,5-b]pyridin-1-yl]-N-(2-methoxyethyl)acetamide], for which the IC50 under setting [3] was determined as 0.116 µM.

For `COc1ccc(-c2cnc3[nH]c(=O)n(Cc4ccccc4C#N)c3c2)c(OC)c1` [Example 487, 2-[[6-(2,4-Dimethoxyphenyl)-2-oxo-3H-imidazo[4,5-b]pyridin-1-yl]methyl]benzonitrile], the IC50 under setting [2] was determined as 2.57 µM.

On to `Cc1ccccc1-c1cnc2[nH]c(=O)n(CCN3CCCC3)c2c1` [Example 179, 6-(o-Tolyl)-1-(2-pyrrolidin-1-ylethyl)-3H-imidazo[4,5-b]pyridin-2-one], for which, under setting [1], the IC50 was 0.707 µM.

As for `Cn1cc(Cn2c(=O)n(C)c3ncc(-c4cccc(C(F)(F)F)c4)cc32)nn1` [Example 552, 3-Methyl-1-[(1-methyltriazol-4-yl)methyl]-6-[3-(trifluoromethyl)phenyl]imidazo[4,5-b]pyridin-2-one], the IC50 under setting [3] was determined as 0.13 µM.

Turning to `Cn1c(=O)n(Cc2ncccn2)c2cc(-c3cccc(C(F)(F)F)c3)cnc21` [Example 261, 3-Methyl-1-(pyrimidin-2-ylmethyl)-6-[3-(trifluoromethyl)phenyl]imidazo[4,5-b]pyridin-2-one], the IC50 under setting [1] was found to be 0.573 µM.

For `O=c1[nH]c2ncc(-c3cccc(C(F)(F)F)c3)cc2n1CC1(F)COC1` [Example 226, 1-[(3-Fluorooxetan-3-yl)methyl]-6-[3-(trifluoromethyl)phenyl]-3H-imidazo[4,5-b]pyridin-2-one], under setting [1], the IC50 was found to be 0.8 µM.

As for `Cn1c(=O)n(CC(=O)N2CC(F)C2)c2cc(-c3ccc(F)s3)cnc21` [Example 83, 1-[2-(3-Fluoroazetidin-1-yl)-2-oxo-ethyl]-6-(5-fluoro-2-thienyl)-3-methyl-imidazo[4,5-b]pyridin-2-one], the IC50 under setting [1] is 0.033 µM.

For `Cc1cc(Cn2c(=O)[nH]c3ncc(-c4cccc(C(F)(F)F)c4)cc32)ccc1F` [Example 221, 1-[(4-Fluoro-3-methyl-phenyl)methyl]-6-[3-(trifluoromethyl)phenyl]-3H-imidazo[4,5-b]pyridin-2-one], the IC50 under setting [1] is 8.71 µM.

`Cn1c(=O)n(CC(=O)N2CCC2)c2cc(-c3ccc(C(F)(F)F)s3)cnc21` [Example 27, 1-[2-(Azetidin-1-yl)-2-oxo-ethyl]-3-methyl-6-[5-(trifluoromethyl)-2-thienyl]imidazo[4,5-b]pyridin-2-one]: under setting [1], the IC50 stood at 0.031 µM.

`Cn1c(=O)n(Cc2cccnn2)c2cc(-c3ccc(F)c(F)c3)cnc21` [Example 61, 6-(3,4-Difluorophenyl)-3-methyl-1-(pyridazin-3-ylmethyl)imidazo[4,5-b]pyridin-2-one]: the IC50 under setting [1] was determined as 0.223 µM.

What is called IC50 is the midpoint of a concentration-inhibition curve.

Source of the values: patent publication US11759455B2, “Substituted 1H-imidazo[4,5-b]pyridin-2(3H)-ones and their use as GLUN2B receptor modulators” (JANSSEN PHARMACEUTICA NV, priority 2016, dated 2023).
